Key:
[1] = tested on: Danio rerio embryo; assay: LEL embryonic photomotor response 24 hpf
Description: (§1)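 ZBEscreen: dechorionated Tropical 5D zebrafish embryos were exposed from 4 hpf in 96-well plates (1% DMSO, 28 °C). All compounds were first tested at 100 µM; hits were retested at 0.005-100 µM. Morphology and mortality were scored at 120 hpf and fitted as BMC10 (3-parameter log-logistic, extra risk). The embryonic photomotor response at 24 hpf and the larval photomotor response at 120 hpf are given as lowest effect levels (K-S test, p<0.01). NA = not significant up to 100 µM; NT = not tested.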

[2] = tested on: Danio rerio embryo; assay: LEL larval photomotor response dark phase 120 hpf
Description: as §1

[3] = tested on: Danio rerio embryo; assay: BMC10 any morphological effect or mortality at 120 hpf; higher = less toxic
[4] = tested on: HL-60; assay: Cell Health Index (toxicity pseudo-probability over dose series) (index 0-1); higher = more cytotoxic / cell stress;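 note: HL-60 cells exposed 4 h at 37 °C to ten threefold dilutions spanning 5 nM to 100 µM, multiparametric flow cytometry features scored by machine-learning classification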
[5] = tested on: Danio rerio embryo; assay: BMC10 mortality 24-120 hpf; higher = less toxic
Description: as §1

SMILES	LEL embryonic photomotor response 24 hpf [1]	LEL larval photomotor response dark phase 120 hpf [2]	BMC10 any morphological effect or mortality [3]	Cell Health Index [4]	BMC10 mortality 24-120 hpf [5]
O=C1C=CC2=C(C(OC/C=C(C)/C)=C(OC=C3)C3=C2)O1 [Imperatorin]	3.7 µM	> 100 µM	2.05 µM	0.307	10.8 µM
C[C@H]1[C@H](OC(=O)CCC(=O)O)O[C@@H]2O[C@@]3(C)CC[C@H]4[C@H](C)CC[C@@H]1[C@@]24OO3 [Artesunate]	> 100 µM	> 100 µM	7.91 µM	0.146	9.08 µM
CC(C)c1cnn2c(NCc3ccccc3-n3cccn3)nc(OC3CCCNC3)nc12 (centres undefined) [LDC-4297]	33.3 µM	> 100 µM	15.3 µM	0.847	32.8 µM
O=C(Nc1cc(C(F)(F)F)ccc1N1CCCCC1)c1ccncc1 [SRPIN340]	33.3 µM	> 100 µM	0.68 µM	0.799	10.3 µM
C=CC(C)(C)c1cc(/C=C/C(=O)c2ccc(O)cc2)c(OC)cc1O [Licochalcone A]	3.7 µM	> 100 µM	0.64 µM	0.828	1.16 µM
O=C1c2cccc(O)c2C(=O)c2c(O)cc(CO)cc21 [Aloe-emodin]	3.7 µM	> 100 µM	9.08 µM	0.198	17.1 µM
C/C=C(/C)C(=O)OC(C)(C)[C@@H]1Cc2c(ccc3ccc(=O)oc23)O1 [Columbianadin]	3.7 µM	> 100 µM	4.14 µM	0.399	4.89 µM
COc1c(C)c2c(c(O)c1C/C=C(\C)CCC(=O)O)C(=O)OC2 [Mycophenolic acid]	11.1 µM	> 100 µM	1.23 µM	0.204	1.93 µM
O=C(Nc1cccc(NC(=O)c2cccc(O)c2O)c1)c1cccc(O)c1O [MST-312]	100 µM	> 100 µM	65.3 µM	0.688	74.3 µM
O=C(NCCO)c1cccc(-c2cc(Nc3ccc(OC(F)(F)F)cc3)ncn2)c1 [GNF-5]	> 100 µM	33.3 µM	28.6 µM	0.81	36.2 µM
COc1ccc(CC(C)C(C)Cc2ccc(OC)c(OC)c2)cc1OC (centres undefined) [Terameprocol]	3.7 µM	> 100 µM	3.12 µM	0.506	24 µM
CC1(C)CC[C@]2(C(=O)O)CC[C@]3(C)C(=CC[C@@H]4[C@@]5(C)C[C@@H](O)[C@H](O)C(C)(C)C5CC[C@]43C)[C@H]2C1 (some centres undefined) [Maslinic acid]	> 100 µM	> 100 µM	13.3 µM	0.494	13.3 µM
CC(C)(C)c1cc(C(=O)/C(C#N)=N/Nc2cccc(Cl)c2)no1 [ESI-09]	11.1 µM	> 100 µM	0.422 µM	0.698	0.13 µM
Cc1sc2c(c1C)C(c1ccc(Cl)cc1)=N[C@@H](CC(=O)OC(C)(C)C)c1nnc(C)n1-2 [(+)-JQ1]	3.7 µM	> 100 µM	1.13 µM	0.87	1.15 µM
COC(=O)C1=C(C)N=C(c2ncc(F)cc2F)NC1c1ccc(F)cc1Cl (racemic) [(±)-BAY 41-4109]	11.1 µM	> 100 µM	8.25 µM	0.592	12.6 µM
CC[C@@]1([C@@H]2O[C@@H]([C@H]3O[C@@](O)(CO)[C@H](C)C[C@@H]3C)C[C@@H]2C)CC[C@H]([C@]2(C)CC[C@]3(C[C@H](O)[C@@H](C)[C@@H]([C@@H](C)[C@@H](OC)[C@H](C)C(=O)[O-])O3)O2)O1.[Na+] [Monensin]	> 100 µM	0.005 µM	27.5 µM	0.493	28.5 µM
O=c1c(O)c(-c2ccccc2)oc2cc(O)cc(O)c12 [Galangin]	100 µM	> 100 µM	12.3 µM	0.411	32.8 µM
Oc1c(Cl)cc(Cl)cc1Sc1cc(Cl)cc(Cl)c1O [Bithionol]	3.7 µM	> 100 µM	0.577 µM	0.826	0.795 µM
C=CCc1ccc(O)c(-c2ccc(O)c(CC=C)c2)c1 [Honokiol]	3.7 µM	> 100 µM	5.7 µM	0.542	9.2 µM
C[C@H]1[C@@H](O)O[C@@H]2O[C@@]3(C)CC[C@H]4[C@H](C)CC[C@@H]1[C@@]24OO3 [Dihydroartemisinin]	> 100 µM	1.23 µM	2.99 µM	0.215	2.11 µM
S=C(N(C1=CC=CC=C1)C(/C2=C\C3=CC=C(C4=CC=CC=C4[N+]([O-])=O)O3)=O)N(C5=CC=CC=C5)C2=O [UCF 101]	> 100 µM	> 100 µM	3.23 µM	0.876	4.93 µM
COc1ccc(C(=O)O[C@H]2[C@H](O[C@@H]3[C@@H](OC(C)=O)[C@H](O[C@H]4C[C@H]5[C@@H]6CC=C7C[C@@H](O)CC[C@]7(C)[C@H]6CC[C@]5(C)[C@@]4(O)[C@H](C)C(=O)CCC(C)C)OC[C@@H]3O)OC[C@@H](O)[C@@H]2O)cc1 [OSW-1]	> 100 µM	0.14 µM	0.03 µM	0.822	0.03 µM
NC(=O)c1cccc(-c2cc(Nc3ccc(OC(F)(F)F)cc3)ncn2)c1 [GNF-2]	11.1 µM	> 100 µM	3.7 µM	0.869	4.78 µM
CC(C)C[C@H](NC(=O)[C@H](Cc1ccccc1)NC(=O)c1cnccn1)B(O)O [Bortezomib]	> 100 µM	0.14 µM	13.2 µM	0.24	17.4 µM
N#CC(=C(/N)Sc1ccccc1N)/C(C#N)=C(\N)Sc1ccccc1N [U0126]	33.3 µM	> 100 µM	4.02 µM	0.558	11.5 µM
CCCCCCCC/C=C\CCCCCCCCCCCCCC(=O)O [Nervonic acid]	> 100 µM	> 100 µM	30.9 µM	0.175	31 µM

SMILES	LEL embryonic photomotor response 24 hpf [1]	LEL larval photomotor response dark phase 120 hpf [2]	BMC10 any morphological effect or mortality [3]	Cell Health Index [4]	BMC10 mortality 24-120 hpf [5]
CC(=O)c1c(O)c(C)c(O)c2c1OC1=CC(=O)C(C(C)=O)C(=O)C12C (centres undefined) [Usnic acid]	33.3 µM	> 100 µM	1.01 µM	0.406	1.77 µM
COc1c(O)cc2oc(-c3ccccc3)cc(=O)c2c1O [Oroxylin A]	> 100 µM	> 100 µM	27.2 µM	0.234	64.9 µM
Cc1cc(Nc2nc(N[C@@H](C)c3ccc(F)cc3)c(C#N)cc2F)n[nH]1 [AZ-960]	3.7 µM	> 100 µM	1.27 µM	0.78	1.95 µM
C[C@H]1O[C@@H](O[C@H]2CC[C@@]3(C)[C@@H](CC[C@]4(C)[C@@H]3C=C[C@]35OC[C@@]6(CCC(C)(C)C[C@H]63)[C@@H](O)C[C@]54C)[C@]2(C)CO)[C@H](O)[C@@H](O[C@@H]2O[C@H](CO)[C@@H](O)[C@H](O)[C@H]2O)[C@H]1O [Saikosaponin A]	> 100 µM	> 100 µM	> 100 µM	0.959	1.46 µM
CN1CCN(CCOc2cc(OC3CCOCC3)c3c(Nc4c(Cl)ccc5c4OCO5)ncnc3c2)CC1 [Saracatinib]	100 µM	> 100 µM	15.5 µM	0.695	45.7 µM
NC(=O)c1ccc(I)c([N+](=O)[O-])c1 [Iniparib]	33.3 µM	> 100 µM	10.2 µM	0.283	33.9 µM
COc1ccc2c(c1)CC[C@@H]1[C@@H]2CC[C@]2(C)[C@@H](NCCCCCCN3C(=O)C=CC3=O)CC[C@@H]12	11.1 µM	> 100 µM	0.134 µM	0.348	0.101 µM
CNc1ccc([N+](=O)[O-])c(Nc2ccc3[nH]ncc3c2)n1 [KRIBB11]	11.1 µM	1.23 µM	3.27 µM	0.372	0.805 µM
Cc1cnc(-c2ccccc2C(C)C)nc1NCc1ccc(-n2ccnn2)cc1 [ML-323]	11.1 µM	> 100 µM	9.11 µM	0.577	10.5 µM
c1ccc(CNc2nc(NCc3ccccc3)c3ccccc3n2)cc1 [DBeQ]	1.23 µM	> 100 µM	1.15 µM	0.929	1.31 µM
CCOC(=O)c1ccc(OCCC2CCN(c3ccc(C)nn3)CC2)cc1 [Pirodavir]	3.7 µM	> 100 µM	2.02 µM	0.528	1.43 µM
CC(=O)c1cc([N+](=O)[O-])c(Sc2cccc(Cl)c2Cl)s1	> 100 µM	> 100 µM	0.246 µM	0.789	27.7 µM
CN(C)CCCNC(=O)c1ccc(-c2cc(O)c3ncccc3c2)cc1 [ML-324]	11.1 µM	> 100 µM	15.9 µM	0.537	15.9 µM
Cl.O[C@@H](c1cc(C(F)(F)F)nc2c(C(F)(F)F)cccc12)[C@H]1CCCCN1 [Mefloquine]	0.015 µM	> 100 µM	8.89 µM	0.931	10.7 µM
CC1(C)[C@@H](O)CC[C@@]2(C)[C@@]1([H])[C@@H](O)C[C@]3(C)[C@]2([H])C[C@@H](O)[C@@]4([H])[C@@]3(C)CC[C@]4([H])[C@@](C)(O)CC/C=C(C)/C [20(S)-Protopanaxatriol]	33.3 µM	> 100 µM	16.2 µM	0.803	25.7 µM
Cl.Cl.OCCOCCN1CCN(Cc2cccc(Oc3ccccc3)c2)CC1	33.3 µM	33.3 µM	36.5 µM	0.385	43.1 µM
COc1cc2c(c(OC)c1OC)-c1c(cc(OC)c(OC)c1OC)C[C@H](C)[C@H](C)C2 [Schisandrin A]	0.015 µM	> 100 µM	3.78 µM	0.661	3.4 µM
Fc1cc(F)c2c(c1)C1C=CCC1C(c1cccnc1)N2 (centres undefined) [Golgicide A]	3.7 µM	> 100 µM	1.37 µM	0.317	2.32 µM
COc1oc(=O)c2cc(N)ccc2c1Cl [JCP251]	100 µM	11.1 µM	42.2 µM	0.306	71.8 µM
CN1CC[C@H](c2c(O)cc(O)c3c(=O)cc(-c4ccccc4Cl)oc23)[C@H](O)C1.Cl [Flavopiridol]	3.7 µM	> 100 µM	1.2 µM	0.49	1.71 µM
CC(C)(C)Oc1cccc2nc(N)nc(N)c12 [HZ-1157]	33.3 µM	> 100 µM	> 100 µM	0.463	16.1 µM
Cc1c(-c2ccc(-c3ccccc3F)cc2)nc2ccc(F)cc2c1C(=O)O [Brequinar]	11.1 µM	> 100 µM	0.331 µM	0.332	1.41 µM
C=C(C)[C@@H]1CC[C@]2(C(=O)O)CC[C@]3(C)[C@H](CC[C@@H]4[C@@]5(C)CC[C@H](OC(=O)CC(C)(C)C(=O)O)C(C)(C)[C@@H]5CC[C@]43C)[C@@H]12 [Bevirimat]	11.1 µM	> 100 µM	1.29 µM	0.321	3.82 µM
C[C@H]1[C@H](C)CC[C@]2(C(=O)O)CC[C@]3(C)C(=CC[C@@H]4[C@@]5(C)CC[C@H](O)C(C)(C)[C@@H]5CC[C@]43C)[C@H]12 [Ursolic acid]	> 100 µM	> 100 µM	0.748 µM	0.434	3.95 µM
CC(C)c1nc(CN(C)C(=O)N[C@@H](CCN2CCOCC2)C(=O)N[C@H](CC[C@H](Cc2ccccc2)NC(=O)OCc2cncs2)Cc2ccccc2)cs1 [Cobicistat]	> 100 µM	> 100 µM	> 100 µM	0.831	

From the supplement of paper PMC11821682
